One substance from US11780927B2, “Anti-CD40 antibodies for use in prevention of graft rejection” (NOVARTIS AG, priority 2018, dated 2023) can be followed below.

Data set [1] relates to human whole blood, PBMCs, monocyte-derived DCs, HUVECs. As to the kind of experiment: Stimulatory potential in vitro (proliferation, CD69, cytokines). It counts as cell-based. The method, then: The ability of CFZ533 to stimulate activation of human leukocytes was assessed using proliferation and upregulation of the activation molecule CD69 on B cells in whole blood. […] Human whole blood from multiple donors (n=13) were incubated with a dose titration of CFZ533, and proliferation (^3H-TdR) was assessed after three days of culture. ii. Human PBMCs from multiple donors (n=26) were incubated with a dose titration of CFZ533, and proliferation (^3H-TdR) was assessed after three days of culture. For both graphs, data is presented as mean and SD of normalized cpm as a function of log-transformed CFZ533 concentration (rCD154+IL-4=100; dotted lines, cells plus media=0; dashed lines). […] Human PBMCs were stimulated for 3 days with a dose titration of CFZ533 in the presence of IL-4 (i) or anti-IgM F(ab′)2. (ii). The mean and SD of 3H-TdR (cpm) is shown as a function of log-transformed CFZ533 concentration. In FIG. 6C it is shown how human whole blood (41 donors) was cultured overnight with no stimuli, CFZ533, isotype control or rCD154 and CD69 expression on B cells was assessed by FACS. Each dot represents data from a single donor with mean % CD69 values indicated by a horizontal red line.

The conditions of data set [2]: cynomolgus monkey, in vivo.
A further data set relates to RAJI B cells. Put plainly: Complement-dependent cytotoxicity with rabbit complement. It counts as cell-based. Particulars: 2 hours. The method, then:
(§1) See supplementary material for detailed methods. Briefly, the ability of CFZ533 to mediated depletion of CD20^pos B cells was monitored in human whole blood over a period of three days in comparison to the B cell depleting antibody Rituximab. For CDC, CFZ533 or Rituximab were incubated with RAJI B cells in the presence or absence of rabbit complement and cell lysis was assessed by luminescence.
(§2) B cells numbers were determined based on CD45pos and CD19pos events falling within lymphocyte FSC (forward-scattered light)/SSC (side-scattered light) gate. Results for individual antibody concentrations were calculated as percent remaining B cells with reference to untreated samples and graphed as a function of log-transformed antibody concentration (adjusted to 100% and shown as a dotted line). Data represent the mean and SD of eight independent donors. […] Concentration dependent killing of the Raji cells was analyzed after 2 hours, where the viability of the cells was measured by determination of the ATP concentration in each well using luciferase. Results are presented as isotype-control normalized relative luciferase units (RLU) as a function of log-transformed antibody concentration.

In a further data set the test system is CD20pos B cells. As to the kind of experiment: In vitro B cell depletion in human whole blood. The class given is cell-based. Particulars: 72 hours; Rituximab 50 μg/ml, CFZ533 dose titration. The method, then: as §1, §2
In data set [3] the test system is transplanted kidney grafts. As to the kind of experiment: Allograft biopsies scored by Chronic Allograft Damage Index (CADI). It counts as in vivo, human. The text has this:
The quality of the graft was estimated using the Chronic Allograph Damage Index (CADI) (Isoniemi et al. 1992 and 1994), where scores of ≤1 reflects normal renal histology and higher scores correlate with poor long-term outcome (Hayry et al. 2004, Yilmaz et al. 2007, Yilmaz et al. 2003). Pristine renal histology was found in 3 of 5 patients on iscalimab (60%) and in none of the 7 treated with tacrolimus (0%). The average CADI was 1.60±0.60 for CFZ533 (n=5) vs. 5.14±0.80 for tacrolimus (n=7), (mean±SEM, p<0.01 using Student t)
A PoC Study in de Novo Renal Transplantation (CCFZ533X2101/NCT02217410) using CFZ533 was performed. […] Allograft biopsies were performed on a subset of study patients. A pathologist, blinded to therapy, reviewed and scored all biopsy slides using the established Banff criteria and calculated the chronic allograft damage index (CADI, Nickerson P et al., Legendre C et al., Seron D et al.,). A CADI of 1 or less was considered as ‘normal renal histology’. Two patients were excluded from the analysis, since they switched therapy after only 2 months. […] The average CADI at final biopsy was 1.6±0.6 for CFZ533 and 5.1±0.8 for tacrolimus, p<0.01.

Data set [4] can be described thus: Dose-range finding embryo-fetal development study. It counts as in vivo. The following applies: rabbits. The text has this:
Full guideline-conform reproductive toxicity studies have not been conducted thus far. However, a dose-range finding, embryo-fetal development (EFD) study in rabbits has been conducted in order to confirm the rabbit as relevant reproductive toxicology species.

The subject of a further data set is human PBMCs. As to the kind of experiment: rCD154 and IL-4-mediated proliferation (3H-TdR), human PBMCs. The class given is cell-based.
The subject of another data set is human B cell line RI-1. Put plainly: Internalization by image flow cytometry. The class given is cell-based. The following applies: 3 hours at 37° C. The method, then:
Internalization of fluorescently tagged CFZ533 and rCD154 was assessed in vitro using the human B cell line RI-1 (Th'ng et al, 1987). CD40 dependence of CFZ533 internalization was assessed using a CD40 knockout RI-1 cell line. Internalization was assessed using an Amnis® image flow cytometer (Merck KHaA, Darnstadt) according to the manufacturer's instructions and data analyzed using ImageStream®^X software.
FIG. 8B. Relative internalization erode of CFZ533 and rCD154 under permissive conditions (non-permissive erode values subtracted). Each dot represents data from an individual experiment and the population mean is indicated as a horizontal red line. FIG. 8C. Representative images of individual CD40 expressing or CD40 knock-out RI-1 cells cultured with Alexa488 labeled CFZ533 for 3 hours at 37° C. In all experiments, cells were co-stained with AlexaFlour 647 labeled CD45 to demark the cell membrane.
In general terms: A flow cytometer gives signals particle by particle.

The next data set deals with PBMCs. The following applies: Rhesus.
Data set [5] is described as follows: 26-week chronic toxicity study.
The nature of data set [6]: 13-week GLP toxicity study.
The subject of data set [7] is life-supporting kidney allografts. As to the kind of experiment: NHP model of kidney allograft rejection. It counts as in vivo, cynomolgus monkeys (Macaca fascicularis).

“And” between values parts separate entries of the source, which are not always exact repeats. Equal entries are not always repeated.

One may read the NOAEL as the highest dose or exposure tested at which no adverse effect was seen.

Regarding “CFZ533: human anti-CD40 IgG1 monoclonal antibody with Fc-silencing N297A mutation; heavy chain SEQ ID NO: 9, light chain SEQ ID NO: 10”, the “Induction of thymidine incorporation (proliferation)” value in data set [1] (human whole blood (1:10 dilution) or PBMCs, three days) was “unable to induce thymidine incorporation”. Also, in data set [1] (human whole blood, overnight), the “Induction of CD69 upregulation on B cells” value is “unable to induce upregulation of CD69”. The “Induction of cytokine production” value in data set [1] (monocyte-derived DCs or HUVECs) is listed as “unable to induce cytokine production”. In addition, in data set [2] (150 mg/kg), the “average concentration at steady state (Cav,ss)” value was 8300 µg/mL and the “systemic exposure (AUC, steady state conditions) over a 1-month period” value came out at 232400 µg·days/mL. Also, in data set [2] (sc, 50 mg/kg), the “Cmax,ss (mean, all animals)” value is 3235 µg/mL. Also, the “Complement-dependent cytotoxicity (CDC) of Raji B cells” value in the data set on RAJI B cells was “unable to mediate complement-dependent cytotoxicity”. The “B cells eliminated in human whole blood” value in the data set with CD20pos B cells was “failed to mediate any cell depletion”. In addition, the “average CADI (mean±SEM)” value in data set [3] (final biopsy) was found to be 1.6±0.6. For the same substance, the “patients with normal (pristine) renal histology, CADI of 1 or less” value in data set [3] (treated for up to 25 months) came to 60%. The “Effects on embryo-fetal development” value in data set [4] is reported as “No effects on embryo-fetal development”. Moreover, in the data set on human PBMCs (added up to 6 hours after start of cultures containing rCD154), the “Effect of delayed addition on rCD154-induced cellular activation” value is given as “complete inhibition of cellular activation with minimal loss of potency”. In addition, the “Inhibition of rCD154-induced proliferation (IC50 PBMCs)” value with human PBMCs (human PBMCs) was 0.02 µg/mL. For the same substance, the IC50 with human PBMCs (human PBMCs, read-out: IC50, rCD154-induced proliferation) worked out at 0.12 nM. In addition, the “Internalization by RI-1 B cells” value with human B cell line RI-1 is recorded as “internalized”. For the same substance, in the data set with PBMCs, the “Inhibition of rCD154-induced proliferation (IC50 PBMCs)” value was 0.03 µg/mL and 0.026 ± 0.017 µg/mL. Further, the “serum concentration with incomplete or no suppression of GCs” value in [5] (1 mg/kg/week subcutaneously, 26 weeks) is on record as “below 20 μg/mL”. For the same substance, in [5] (26-week, cynomolgus monkeys), the NOAEL is on record as 150 mg/kg. In addition, the “Cmax,ss at NOAEL versus expected human Cmax” value in data set [5] (proposed intravenous regimen) was 24 fold. Also, the Increased lymphoid cellularity in data set [6] (weekly dosing at 10, 50 and 150 mg/kg) is 5/22. For the same substance, in data set [6] (weekly dosing, rhesus monkey), the “No Observed Adverse Effect Level (NOAEL)” value is recorded as 10 mg/kg. The “Days after Transplantation (median days)” value in data set [7] (CFZ533 30 mg/kg i.v. monotherapy, n 5) was determined as 95 days. Also, the “Survival of kidney allografts and graft morphology” value in [7] (combination with CsA (20 mg/kg p.o.) or monotherapy) is reported as “demonstrated efficacy in increasing the survival of kidney allografts in NHPs”.
